“Also recorded” adds a separate entry of the source.
How the values were obtained:
NIH 3T3 cells = assay: 2-aminopurine effect on viral protein synthesis; type: cell-based, mouse; details: 5 mM, concurrently with reovirus; label 12 to 48 h postinfection
Method: To test this idea, 2-aminopurine was used. […] Accordingly, NIH 3T3 cells were exposed to 5 mM 2-aminopurine concurrently with exposure to reovirus. The cells were labeled with [^35S]methionine from 12 to 48 h postinfection, and lysates were harvested and analyzed by SDS-PAGE.

PKR = assay: PD98059 effect on PKR phosphorylation; type: cell-based
H-Ras-transformed cells = assay: PD98059 effect on reovirus protein synthesis; type: cell-based; details: 50 μM, MOI approximately 10 p.f.u./cell, label 12 to 48 hours
Method: (§1) H-Ras-transformed cells were grown to 80% confluency and infected with reovirus at an MOI of approximately 10 p.f.u./cell. PD98059 (Calbiochem), dissolved in dimethylsulfoxide (DMSO), was applied to the cells at the same time as the virus (final concentration of PD98059 was 50 μM). The control cells received an equivalent volume of DMSO. The cells were labeled with ^35S-methionine from 12 to 48 hours post-infection. Lysates were then prepared, immunoprecipitated with the polyclonal anti-reovirus serotype 3 serum and analyzed by SDS-PAGE.

ERK1/2 phosphorylation = assay: PD98059 effect on ERK1/2 phosphorylation; type: cell-based; details: 50 μM
Source text: The PhosphoPlus p44/42 MAP kinase (Thr202/Tyr204) Antibody kit (New England Biolabs) was used for the detection of MAP kinase in cell lysates according to the manufacturer's instructions. Briefly, subconfluent monolayer cultures were lysed with the recommended SDS-containing sample buffer, and subjected to SDS-PAGE, followed by electroblotting onto nitrocellulose paper. The membrane was then probed with the primary antibody (anti-total MAPK or anti-phospho-MAPK), followed by the horseradish peroxidase (HRP)-conjugated secondary antibody as described in the manufacturer's instruction manual.
as §1
As expected, PD98059 had no effect on reovirus-induced PKR phosphorylation in untransformed NIH-3T3 cells (data not shown).

| Compound | level of viral protein synthesis (NIH 3T3 cells) | PKR phosphorylation state (PKR; infected H-Ras-transformed cells, 50 μM) | effect on reovirus-induced PKR phosphorylation (PKR; untransformed NIH-3T3 cells) | effect on viral protein synthesis (H-Ras-transformed cells) | inhibition of reovirus protein synthesis (H-Ras-transformed cells) | ERK1/2 phosphorylation (ERK1/2 phosphorylation) |
| --- | --- | --- | --- | --- | --- | --- |
| Nc1ncc2[nH]cnc2n1 [2-aminopurine] | significantly higher level of viral protein synthesis; also recorded: drastic enhancement of reovirus protein synthesis |  |  |  |  |  |
| COc1cccc(-c2cc(=O)c3ccccc3o2)c1N [PD98059] |  | remained unphosphorylated | no effect | slight enhancement of viral protein synthesis | did not inhibit reovirus protein synthesis | effectively inhibited ERK1/2 phosphorylation |
